From ChEMBL document CHEMBL5214933, “Discovery of Selenium-Containing STING Agonists as Orally Available Antitumor Agents” (J Med Chem, 2022)
Activity calls are given as the source filed them. The rule behind the calls is not given here.

Tests used:
[1] = biological target: T1, Stimulator of interferon genes protein (Mus musculus) (UniProt Q3TBT3); assay: Agonist activity at STING in mouse MEF cells assessed as increase in IFNbeta mRNA expression at 10 uM measured after 3 hrs by qRT-PCR analysis; assay type: cell-based; details: filed as agonist
T1 sequence (whole entry): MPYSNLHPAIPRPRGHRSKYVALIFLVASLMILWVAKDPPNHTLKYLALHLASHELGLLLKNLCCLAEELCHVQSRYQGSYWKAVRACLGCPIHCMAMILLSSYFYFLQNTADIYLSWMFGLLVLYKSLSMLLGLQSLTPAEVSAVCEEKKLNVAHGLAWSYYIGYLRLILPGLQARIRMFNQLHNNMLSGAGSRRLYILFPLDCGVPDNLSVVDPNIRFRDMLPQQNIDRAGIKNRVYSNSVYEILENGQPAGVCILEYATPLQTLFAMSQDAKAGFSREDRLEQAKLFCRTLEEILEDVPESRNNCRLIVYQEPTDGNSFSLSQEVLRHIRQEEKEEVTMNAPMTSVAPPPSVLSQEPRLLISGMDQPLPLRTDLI

CT26 = assay: In vivo activation of STING in naive BALB/c mouse implanted with mouse CT26 cells assessed as increase in IFN-gamma level in plasma at 20 mg/kg, po administered as single dose and measured after 4 hrs by ELISA; assay type: functional, organism-based
[2] = Stability in dog plasma assessed as interconversion into (S)-4-(5,6-Dimethoxybenzo[b]selenophen-2-yl)-2-ethyl-4-oxobutanoic acid incubated for 24 hrs by normal-phase HPLC analysis; assay type: ADME, cell-free, Canis lupus familiaris

In the case of `CC[C@H](CC(=O)c1cc2cc(OC)c(OC)cc2[se]1)C(=O)O`, the Activity [1] is reported as “Active”, the Activity (CT26) is reported as “Active” and the Stability [2] is reported as “Stable”.
